How the values were obtained:
AMARE [1] = experiment: Post-emergence herbicidal action; assay type: in vivo, Amaranthus retroflexus; settings: 80 g/ha, rated visually after about 3 weeks vs untreated controls
Procedure: (§1) 2. Post-Emergence Herbicidal Action and Crop Plant Compatibility
(§2) Seeds of monocotyledonous and dicotyledonous weeds and crop plants are placed in sandy loam in plastic or organic planting pots, covered with soil and cultivated in a greenhouse under controlled growth conditions. 2 to 3 weeks after sowing, the test plants are treated at the one-leaf stage. The compounds of the invention, formulated in the form of wettable powders (WP) or as emulsion concentrates (EC), are then sprayed onto the green parts of the plants as aqueous suspension or emulsion with addition of 0.5% additive at a water application rate of […] (converted). After the test plants had been kept in the greenhouse under optimum growth conditions for about 3 weeks, the activity of the preparations is rated visually in comparison to untreated controls. The tables below show the herbicidal activity of numerous compounds according to the invention against important harmful plants. For example, 100% activity=the plants have died, 0% activity=like control plants.

STEME [2] = experiment: Pre-emergence herbicidal action; assay type: in vivo, Stellaria media; settings: 320 g/ha, scored visually after about 3 weeks vs untreated controls
Text: (§3) 1. Pre-Emergence Herbicidal Action and Crop Plant Compatibility
(§4) Seeds of monocotyledonous and dicotyledonous weed plants and crop plants are placed in plastic or organic planting pots and covered with soil. The compounds of the invention, formulated in the form of wettable powders (WP) or as emulsion concentrates (EC), are then applied onto the surface of the covering soil as aqueous suspension or emulsion with addition of 0.5% additive at a water application rate of 600 l/ha (converted). After the treatment, the pots are placed in a greenhouse and kept under good growth conditions for the trial plants. After about 3 weeks, the effect of the preparations is scored visually in comparison with untreated controls as percentages. The tables below show the herbicidal activity of numerous compounds according to the invention against important harmful plants. For example, 100% activity=the plants have died, 0% activity=like control plants.

ABUTH [3] = experiment: Post-emergence herbicidal action; assay type: in vivo, Abutilon theophrasti; settings: 80 g/ha; for herbicidal activity ABUTH: post-emergence, rated visually after about 3 weeks vs untreated controls
Procedure: as §1, §2

ECHCG [4] = experiment: Pre-emergence herbicidal action; assay type: in vivo, Echinochloa crus-galli; settings: 320 g/ha, scored visually after about 3 weeks vs untreated controls
Text: as §3, §4

VIOTR [5] = experiment: Pre-emergence herbicidal action; assay type: in vivo, Viola tricolor; settings: 320 g/ha, scored visually after about 3 weeks vs untreated controls
Text: as §3, §4

MATIN [6] = experiment: Post-emergence herbicidal action; assay type: in vivo, Matricaria inodora; settings: 80 g/ha, rated visually after about 3 weeks vs untreated controls
Procedure: as §1, §2

ABUTH [7] = experiment: Pre-emergence herbicidal action; assay type: in vivo, Abutilon theophrasti; settings: 320 g/ha; for herbicidal activity ABUTH: pre-emergence, scored visually after about 3 weeks vs untreated controls
Text: as §3, §4

STEME [8] = experiment: Post-emergence herbicidal action; assay type: in vivo, Stellaria media; settings: 80 g/ha, rated visually after about 3 weeks vs untreated controls
Procedure: as §1, §2

SETVI [9] = experiment: Post-emergence herbicidal action; assay type: in vivo, Setaria viridis; settings: 80 g/ha, rated visually after about 3 weeks vs untreated controls
Procedure: as §1, §2

MATIN [10] = experiment: Pre-emergence herbicidal action; assay type: in vivo, Matricaria inodora; settings: 320 g/ha; for herbicidal activity MATIN: pre-emergence, scored visually after about 3 weeks vs untreated controls
Text: as §3, §4

AMARE [11] = experiment: Pre-emergence herbicidal action; assay type: in vivo, Amaranthus retroflexus; settings: 320 g/ha, scored visually after about 3 weeks vs untreated controls
Text: as §3, §4

ECHCG [12] = experiment: Post-emergence herbicidal action; assay type: in vivo, Echinochloa crus-galli; settings: 80 g/ha, rated visually after about 3 weeks vs untreated controls
Procedure: as §1, §2

CYPES = experiment: Pre-emergence herbicidal action; assay type: in vivo, Cyperus esculentus; settings: dosage 320 g/ha, scored visually after about 3 weeks vs untreated controls, 100% = plants have died, 0% = like control plants
Text: as §3, §4

VIOTR [13] = experiment: Post-emergence herbicidal action; assay type: in vivo, Viola tricolor; settings: 80 g/ha, rated visually after about 3 weeks vs untreated controls
Procedure: as §1, §2

PHBPU = experiment: Post-emergence herbicidal action; assay type: in vivo, Ipomoea purpurea; settings: 80 g/ha, rated visually after about 3 weeks vs untreated controls
Procedure: as §1, §2

SETVI [14] = experiment: Pre-emergence herbicidal action; assay type: in vivo, Setaria viridis; settings: 320 g/ha; for herbicidal activity SETVI: pre-emergence, scored visually after about 3 weeks vs untreated controls
Text: as §3, §4

ALOMY [15] = experiment: Post-emergence herbicidal action; assay type: in vivo, Alopecurus myosuroides; settings: post-emergence comparative experiment, 80 g/ha
Procedure: as §1, §2

POLCO = experiment: Post-emergence herbicidal action; assay type: in vivo, Polygonum convolvulus; settings: post-emergence comparative experiment, 80 g/ha
Procedure: as §1, §2

LOLMU = experiment: Post-emergence herbicidal action; assay type: in vivo, Lolium multiflorum; settings: post-emergence comparative experiment, 80 g/ha
Procedure: as §1, §2

numerous harmful plants [16] = experiment: Pre-emergence comparative experiment, herbicidal activity; assay type: in vivo
Text: as §4, with “control plants. In a comparative experiment, by way of example, the herbicidal activity of compound No. 2-53 according to the invention was compared to that of compound No. A-117 known from WO 2013/076315 A2.” for “control plants.”

AVEFA [17] = experiment: Post-emergence herbicidal action; assay type: in vivo, Avena fatua; settings: post-emergence comparative experiment, 80 g/ha
Procedure: as §1, §2

ALOMY [18] = experiment: Pre-emergence herbicidal action; assay type: in vivo, Alopecurus myosuroides; settings: pre-emergence comparative experiment, 320 g/ha
Text: as §3, §4

numerous harmful plants [19] = experiment: Post-emergence comparative experiment, herbicidal activity; assay type: in vivo
Procedure: as §2, with “control plants. In a comparative experiment, by way of example, the herbicidal activity of compound No. 2-53 according to the invention was compared to that of compound No. A-117 known from WO 2013/076315 A2.” for “control plants.”

AVEFA [20] = experiment: Pre-emergence herbicidal action; assay type: in vivo, Avena fatua; settings: pre-emergence comparative experiment, 320 g/ha
Text: as §3, §4

VERPE [21] = experiment: Pre-emergence herbicidal action; assay type: in vivo, Veronica persica; settings: 320 g/ha, scored visually after about 3 weeks vs untreated controls
Text: as §3, §4

VERPE [22] = experiment: Post-emergence herbicidal action; assay type: in vivo, Veronica persica; settings: 80 g/ha, rated visually after about 3 weeks vs untreated controls
Procedure: as §1, §2

[23] = pre-emergence comparative experiment

SMILES	herbicidal activity AMARE (AMARE [1])	herbicidal activity STEME (STEME [2])	herbicidal activity ABUTH (ABUTH [3])	herbicidal activity ECHCG (ECHCG [4])	herbicidal activity VIOTR (VIOTR [5])	herbicidal activity MATIN (MATIN [6])	herbicidal activity ABUTH (ABUTH [7])	herbicidal activity STEME (STEME [8])	herbicidal activity SETVI (SETVI [9])	herbicidal activity MATIN (MATIN [10])	herbicidal activity AMARE (AMARE [11])	herbicidal activity ECHCG (ECHCG [12])	herbicidal activity CYPES (CYPES)	herbicidal activity VIOTR (VIOTR [13])	herbicidal activity PHBPU (PHBPU)	herbicidal activity SETVI (SETVI [14])	herbicidal activity VERPE (VERPE [21])	herbicidal activity VERPE (VERPE [22])	further results
CC1Oc2c(C(=O)Nc3nnnn3C)ccc(C(F)(F)F)c2S1(=O)=O (centres unmarked) [Example 2-106]	100%	90%	90%	90%	100%	90%	100%	100%	100%	100%	100%	100%	90%	100%	80%	90%			
Cn1nnnc1NC(=O)c1ccc(C(F)(F)F)c2c1OCS2 [Example 2-53, 4-(trifluoromethyl)-1,3-benzoxathiolane-N-(1-methyltetrazol-5-yl)-7-carboxamide]																			Herbicidal action against ALOMY (ALOMY [15]): 80%; Herbicidal action against POLCO (POLCO): 80%; Herbicidal action against ABUTH (ABUTH [3]; post-emergence comparative experiment): 80%; Herbicidal action against LOLMU (LOLMU): 70%; herbicidal activity compared to that of compound No. A-117 (numerous harmful plants [16]): superiority; Herbicidal action against AVEFA (AVEFA [17]): 100%; Herbicidal action against ALOMY (ALOMY [18]): 30%; Herbicidal action against ABUTH (ABUTH [7]; [23]): 90%; herbicidal activity compared to that of compound No. A-117 (numerous harmful plants [19]): superiority; Herbicidal action against MATIN (MATIN [10]; [23]): 90%; Herbicidal action against AVEFA (AVEFA [20]): 60%; Herbicidal action against SETVI (SETVI [14]; [23]): 80%
CCn1nnnc1NC(=O)c1ccc(C(F)(F)F)c2c1OC[S+]2[O-] (centres unmarked) [Example 3-67]	100%	100%	80%	100%	100%	90%	90%	100%		90%	100%	100%	80%	100%	100%	80%	100%	100%	
Cn1nnnc1NC(=O)c1ccc(C(F)(F)F)c2c1OCS2(=O)=O [Example 2-83]	100%	100%	90%	100%	100%	100%	100%	100%	90%	90%	100%	90%	100%	100%	90%	100%	100%	90%	
Cn1nnnc1NC(=O)c1ccc(C(F)(F)F)c2c1OC[S+]2[O-] (centres unmarked) [Example 2-68, 4-(trifluoromethyl)-1,3-benzoxathiolane-N-(1-methyltetrazol-5-yl)-7-carboxamide 3-oxide]	100%	90%		90%	100%	90%	90%	100%	90%	90%	100%	100%	90%	100%	90%	100%	100%	100%	
CCn1nnnc1NC(=O)c1ccc(C(F)(F)F)c2c1OCS2(=O)=O [Example 3-82]	100%	100%		100%	100%	100%	90%	100%		100%	100%	80%	90%	100%	90%		100%	100%	

Reference: patent US11897904B2, “Herbicidally active bicyclic benzamides” (Bayer Aktiengesellschaft, priority 2017, dated 2024)
